Read-outs that look alike come from different tables or passages of the source.
Legend:
[1] = system: A673 human rhabdomyosarcoma cell line; test: cells; conditions: Homo sapiens, A673, 72 h
Method in brief: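 A673 cells seeded at 5,000 per well, grown 24 h drug-free, then exposed to compounds for 72 h. Viability by MTT reduction (8 h, 37 °C), formazan dissolved in DMSO. Results expressed as percentage of control cell growth.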

[2] = system: SK-MEL-2 human melanoma cell line; test: cells; conditions: Homo sapiens, SK-MEL-2, 72 h
Procedure: (§1) a. […] Briefly, cells were harvested and seeded in 96 well microtiter plates at a density of 5,000 cells in 150 μL of culture medium and incubated for 24 hours in drug-free medium before treatment with vehicle alone or test compounds for 72 h.
(§2) The cytotoxic effect was measured by the MTT reduction assay, in which 3-(4,5-Dimethylthiazol-2-yl)-2,5-diphenyltetrazolium bromide, a tetrazole, which is reduced to purple formazan in the mitochondria of living cells, was used. MTT (50 μL of 1 mg/mL stock solution) was added to the wells and incubated for 8 hours at 37° C. until formazan crystals were formed. After gently removing the culture medium, DMSO was added to dissolve the insoluble purple formazan product into a colored solution. […] Results were expressed as percentage of control cell growth.
(§3) b. In a second set of assays, A549 human tumor cells were incubated with PM01183 in combination with each of the agents mentioned above.
(§4) As a visual aid, response values were plotted on a scatter plot with dose ratios given on the x-axis and % response values on the y-axis. […] In cases where response values at the two endpoints were approximately equivalent, points lying above or below this predicted line of additivity could be interpreted as representing antagonistic or synergistic drug interaction, respectively.
(§5) Additional serial dilutions were prepared in serum-free culture medium to achieve a final 4× concentration. Aliquots of 50 μL of each diluted compound were added per well.
SK-MEL-2 was the human melanoma cell line selected for this assay.

[3] = system: PC-3 human prostate cancer cell line; test: cells; conditions: Homo sapiens, PC-3, 72 h
Method in brief: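 Cells seeded at 5,000/well, grown 24 h drug-free, then exposed to vehicle or test compounds for 72 h. Viability by MTT reduction (8 h, 37 °C), formazan dissolved in DMSO. Values given as percentage of control cell growth.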

[4] = system: PANC-1 human pancreatic carcinoma cell line; test: cells; conditions: Homo sapiens, PANC-1, 72 h
Procedure: as §1, §2, §3, §4, §5
PANC-1 was the human pancreatic carcinoma cell line selected for this assay.

[5] = system: HGC-27 human gastric carcinoma cell line; test: cells; conditions: Homo sapiens, HGC-27, 72 h
[6] = system: IGROV-1 human ovarian adenocarcinoma cell line; test: cells; conditions: Homo sapiens, IGROV-1, 72 h
[7] = system: HepG2 human hepatocellular liver carcinoma cell line; test: MTT cytotoxicity assay in HepG2 cells: IC50 of single agents and combinations with PM01183; format: cell-based; conditions: Homo sapiens
[8] = system: MDA-MB-231 human breast adenocarcinoma cell line; test: cells; conditions: Homo sapiens, MDA-MB-231, 72 h
[9] = system: RXF-393 human kidney carcinoma cell line; test: cells; conditions: Homo sapiens, RXF 393, 72 h
[10] = system: HT-29 human colon adenocarcinoma cell line; test: cells; conditions: Homo sapiens, HT-29, 72 h
Method in brief: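 HT-29 cells (5,000/well) were attached for 24 h, then exposed to vehicle or compounds for 72 h. Viability was read by MTT reduction, with 8 h MTT at 37° C and formazan dissolved in DMSO. Values are % of control cell growth.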

[11] = system: RAMOS human lymphoma cell line; test: cells; conditions: Homo sapiens, Ramos, 72 h
Procedure: (§6) Briefly, cells were seeded in 96 well microtiter plates at a density of 50000 cells per well in 150 μL of culture medium and incubated for 4-6 hours in drug-free medium before treatment with vehicle alone or test compounds for 72 hours.
(§7) After incubation, the cytotoxic effect was evaluated using a MTT reduction assay. 50 μL of MTT solution (1 mg/mL) were added to the wells and incubated for 15-17 hours at 37° C. until formazan crystals were formed. After gently removing the culture medium, DMSO was added to dissolve the insoluble purple formazan product into a colored solution. […] Results were expressed as percentage of control cell growth. The EC50 values (half-maximal effective concentration) used for the combination studies were calculated using Prism v5.02 software (GraphPad). EC50 was expressed as molar concentration and represented the mean of at least three independent assays.
(§8) Using these starting concentrations, constant serial dilutions were performed to generate the concentration-response curves for each set of drugs, alone and in combination.
(§9) Based on this equation, the term “combination index” (CI) is used as a quantitative measure of the degree of drug interactions. […] CI values were calculated by solving the equation for different values of fa (i.e., for different degrees of cell groth inhibition).
(§10) Data were analyzed using CalcuSyn software (Biosoft, Cambridge, UK). For statistical analysis and graphs Prism software (GraphPad, San Diego, USA) was used. All the results represent the mean of at least three independent experiments.
as §5
(§11) In the second set of assays, concentration-response curves for the agents tested, both alone and in two-drug combination, were performed.

[12] = system: A549 human lung carcinoma cell line; test: MTT cytotoxicity assay in A549 cells: IC50 of single agents and combinations with PM01183; format: cell-based; conditions: Homo sapiens; A549, 72 hours drug exposure, MTT; read-out: IC50
Method in brief: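 A549 cells seeded at 5,000 per well, grown 24 h drug-free, then exposed to vehicle or compounds for 72 h, either singly or combined with PM01183. Combination responses plotted against dose ratio relative to an additivity line.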

[13] = system: U87-MG human glioblastoma cell line; test: cells; conditions: Homo sapiens, U-87 MG, 72 h
Procedure: as §1, §2, §3, §4, §5
U87-MG was the human glioblastoma cell line selected for this assay.

[14] = system: JURKAT human leukemia cell line; test: cells; conditions: Homo sapiens, Jurkat, 72 h
Procedure: as §5
JURKAT and MOLT-4 were the human leukemia cell lines selected for this assay, which were obtained from the American Type Culture Collection (ATCC).
as §6, §7
b. In a second set of experiments, concentration-response curves for the agents tested, both alone and in two-drug combination, were performed, using the same methodology described in the previous paragraph.
as §8, §9, §10

[15] = system: U-937 human lymphoma cell line; test: cells; conditions: Homo sapiens, U-937, 72 h
Procedure: as §6, §7, §8, §9, §10, §5, §11

[16] = system: SW1990 tumors; test: Human pancreatic tumor xenografts (SW1990) in athymic nude mice, tumor volume % T/C; format: in vivo
Procedure: Female athymic nude mice (Harlan Laboratories Models, S.L. (Barcelona, Spain) were utilized for all experiments. Animals were housed in individually ventilated cages, up to ten per cage in a 12-hour light-dark cycle at 21-23° C. and 40-60% humidity. The mice were allowed free access to irradiated standard rodent diet and sterilized water. Animals were acclimated for at least 5 days prior to tumor implantation with a tumor cell suspension.
Each animal was subcutaneously implanted on the right flank, using 26G needle and a 1 cc syringe, with 5×10^6 SW1990 cells, from in vitro passage 12, in 0.05 mL suspension of 50% Matrigel and 50% serum free medium, without antibiotics.
PM01183 was provided in the form of vials of lyophilized PM01183 cake which was reconstituted with water for infusion to a concentration of 0.2 mg/mL. The PM01183 stock solution was further diluted in 5% glucose solution for injection to the dosing formulation concentrations.
Dose level groups were administered either as single agents or in combination.
Comparison of the median tumor volume in the treatment groups (T) to the median tumor volume in the control group (T/C×100%) was used for evaluation of the antitumor efficacy.

[17] = HepG2, 72 hours drug exposure, MTT, read-out: IC50
[18] = gemcitabine 45.0 mg/kg iv days 0,7,14
[19] = gemcitabine 90.0 mg/kg iv days 0,7,14
[20] = gemcitabine 135.0 mg/kg iv days 0,7,14
[21] = gemcitabine 180.0 mg/kg iv days 0,7,14

`Nc1ccn([C@@H]2O[C@H](CO)[C@@H](O)[C@@H]2O)c(=O)n1` [Cytarabine, cytarabine] was tested, and the IC50 [1] was 197 nM, the IC50 [2] was 3890 nM and the IC50 [3] was 40000 nM. It also gave an IC50 [4] of 90000 nM, an IC50 [5] of 50000 nM and an IC50 [6] of 11700 nM. For the same compound, the IC50 ([7]; HepG2, 72 h) was 20600 nM, the IC50 [8] was 9570 nM and the IC50 [9] was 50000 nM. It also gave an IC50 [10] of 7800 nM and an EC50 [11] of 36.4 nM.
Work on `COc1cccc2c1C(=O)c1c(O)c3c(c(O)c1C2=O)C[C@@](O)(C(C)=O)C[C@@H]3O[C@H]1C[C@H](N)[C@H](O)[C@H](C)O1` [Daunorubicin, daunorubicin] yielded an IC50 [12] of 355 nM, an IC50 [1] of 520 nM and an IC50 [2] of 177 nM. It also gave an IC50 [3] of 1150 nM, an IC50 [4] of 869 nM and an IC50 [5] of 372 nM. It also gave an IC50 [6] of 355 nM, an IC50 [7, 17] of 300 nM and an IC50 [8] of 370 nM. The IC50 [9] was 620 nM, the IC50 [10] was 532 nM and the IC50 [13] was 284 nM. For the same compound, the EC50 [14] was 792 nM, the EC50 [11] was 315 nM and the EC50 [15] was 304 nM.
Compound `Nc1ccn([C@@H]2O[C@H](CO)[C@@H](O)C2(F)F)c(=O)n1` [Gemcitabine, gemcitabine] has an IC50 [12] of 0.28 nM, an IC50 [1] of 0.434 nM and an IC50 [3] of 400 nM. It also gave an IC50 [4] of 1000 nM, an IC50 [5] of 0.534 nM and an IC50 [6] of 6.34 nM. The IC50 [7, 17] was 5.34 nM, the IC50 [8] was 8.5 nM and the IC50 [9] was 500 nM. The IC50 [10] was 400 nM, the IC50 [13] was 450 nM and the EC50 [11] was 25.1 nM. For the same compound, the EC50 [15] was 32.7 nM, the “% T/C on day 0” value [16, 18] was 102.3% and the “% T/C on day 3” value [16, 18] was 85.5%. The “% T/C on day 6” value [16, 18] was 70.3%, the “% T/C on day 8” value [16, 18] was 70.5% and the “% T/C on day 10” value [16, 18] was 63.3%. For the same compound, the “% T/C on day 13” value [16, 18] was 64.8%, the “% T/C on day 15” value [16, 18] was 63.1% and the “% T/C on day 17” value [16, 18] was 58.5%. For the same compound, the “% T/C on day 20” value [16, 18] was 58.7%, the “% T/C on day 22” value [16, 18] was 57.3% and the “% T/C on day 24” value [16, 18] was 65.2%. The “% T/C on day 28” value [16, 18] was 59.3%, the “% T/C on day 0” value [16, 19] was 103.8% and the “% T/C on day 3” value [16, 19] was 70.0%. The “% T/C on day 6” value [16, 19] was 73.8%, the “% T/C on day 8” value [16, 19] was 63.3% and the “% T/C on day 10” value [16, 19] was 55.6%. For the same compound, the “% T/C on day 13” value [16, 19] was 54.8%, the “% T/C on day 15” value [16, 19] was 49.9% and the “% T/C on day 20” value [16, 19] was 47.6%. The “% T/C on day 22” value [16, 19] was 47.0%, the “% T/C on day 24” value [16, 19] was 45.9% and the “% T/C on day 28” value [16, 19] was 49.2%. The “% T/C on day 0” value [16, 20] was 102.3%, the “% T/C on day 3” value [16, 20] was 78.3% and the “% T/C on day 6” value [16, 20] was 71.9%. For the same compound, the “% T/C on day 8” value [16, 20] was 63.7%, the “% T/C on day 10” value [16, 20] was 55.4% and the “% T/C on day 13” value [16, 20] was 52.7%. The “% T/C on day 15” value [16, 20] was 54.8%, the “% T/C on day 17” value [16, 20] was 51.2% and the “% T/C on day 20” value [16, 20] was 49.5%. The “% T/C on day 22” value [16, 20] was 48.7%, the “% T/C on day 24” value [16, 20] was 49.8% and the “% T/C on day 28” value [16, 20] was 49.5%. For the same compound, the “% T/C on day 0” value [16, 21] was 102.2%, the “% T/C on day 3” value [16, 21] was 84.1% and the “% T/C on day 6” value [16, 21] was 73.9%. The “% T/C on day 8” value [16, 21] was 66.1%, the “% T/C on day 10” value [16, 21] was 60.9% and the “% T/C on day 13” value [16, 21] was 59.4%. The “% T/C on day 15” value [16, 21] was 58.5%, the “% T/C on day 17” value [16, 21] was 52.1% and the “% T/C on day 20” value [16, 21] was 49.1%. For the same compound, the “% T/C on day 22” value [16, 21] was 48.6%, the “% T/C on day 24” value [16, 21] was 46.9% and the “% T/C on day 28” value [16, 21] was 39.3%.
